Results as given in patent US6358885B1, “Substituted phenylheterocyclic herbicides” (Mississippi State University, priority 1992, dated 2002).

Key:
[1] = system: soybean; assay: Test C preemergence/postemergence greenhouse plant response rating 0 to 100; assay type: in vivo, Glycine max
How it was run: (§1)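 Compounds in non-phytotoxic solvent applied preemergence to sandy loam one day after planting, postemergence at the 1–4 leaf stage, or to ~2.5 cm floodwater over silt loam.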

[2] = system: rice; assay: Test C flood test plant response rating 0 to 100; assay type: in vivo, Oryza sativa
Excerpt: (§2) The compounds evaluated in this test were formulated in a non-phytoxic solvent and applied to the soil surface before plant seedlings emerged (preemergence application), to water that covered the soil surface (flood application), and to plants that were in the one-to-four leaf stage (postemergence application). A sandy loam soil was used for the preemergence and postemergence tests, while a silt loam soil was used in the flood test. Water depth was approximately 2.5 cm for the flood test and was maintained at this level for the duration of the test. Plant species in the preemergence and postemergence tests consisted of barley (Hordeum vulgare), bedstraw (Galium aparine), blackgrass (Alopecurus myosuroides), chickweed (Stellaria media), corn (Zea mays), cotton (Gossypium hirsutum), crabgrass (Digitaria sanguinalis), downy brome (Bromus tectorum), giant foxtail (Setaria faberii), lambsquarters (Chenopodium album), morningglory (Ipomoea hederacea), pigweed ([…]), rape (Brassica napus), ryegrass (Lolium multiflorum), sorghum (Sorghum bicolor), soybean (Glycine max), speedwell (Veronica persica), sugar beet (Beta vulgaris), velvetleaf (Abutilon theophrasti), wheat (Triticum aestivum), wild buckwheat (Polygonum convolvulus), and wild oat (Avena fatua). All plant species were planted one day before application of the compound for the preemergence portion-of this test. Plantings of these species were adjusted to produce plants of appropriate size for the post-emergence portion of the test. […] All plant species were grown using normal greenhouse practices. Visual evaluations of injury expressed on treated plants, when compared to untreated controls, were recorded approximately fourteen to twenty one days after application of the test compound. […] A dash (-) response means no test result.

[3] = system: crabgrass; assay: Test B preemergence/postemergence greenhouse plant response rating 0 to 10; assay type: in vivo, Digitaria spp.; conditions: for Plant response rating, Crabgrass: 0 to 10 scale
How it was run: (§3)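 Postemergence treatment of plants two to eighteen cm tall ran alongside preemergence treatment of planted seed, each using compound in a non-phytotoxic solvent.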

[4] = system: barnyardgrass; assay: Test C flood test plant response rating 0 to 100; assay type: in vivo, Echinochloa crus-galli
Excerpt: as §2

[5] = system: purple nutsedge; assay: Test B preemergence/postemergence greenhouse plant response rating 0 to 10; assay type: in vivo, Cyperus rotundus; conditions: for Plant response rating, Nutsedge: 0 to 10 scale
How it was run: as §3

[6] = system: cocklebur; assay: as above; assay type: in vivo, Xanthium pensylvanicum; conditions: for Plant response rating, Cocklebur: 0 to 10 scale
How it was run: as §3

[7] = system: wild oat; assay: Test C preemergence/postemergence greenhouse plant response rating 0 to 100; assay type: in vivo, Avena fatua; conditions: for Plant response rating, Wild oat: 125 g/ha, 0 to 100 scale
How it was run: as §1

[8] = system: downy brome; assay: as above; assay type: in vivo, Bromus tectorum; conditions: for Plant response rating Downy Brome: 125 g/ha, 0 to 100 scale
How it was run: as §1

[9] = system: rape; assay: as above; assay type: in vivo, Brassica napus; conditions: for Plant response rating, Rape: 125 g/ha, 0 to 100 scale
How it was run: as §1

[10] = POSTEMERGENCE section, flood test, Rate 2 g/ha
[11] = Rate 8 g/ha, under POSTEMERGENCE head (flood test species)
[12] = Rate 31 g/ha, under POSTEMERGENCE head (flood test species)
[13] = flood test species listed under POSTEMERGENCE, 125 g/ha, 0 to 100 scale

CCOCOc1cc(-c2nn3c(c2Cl)CCCC3)c(F)cc1Cl [Compound 59]
Plant response rating, Soybean ([1]; PREEMERGENCE, 125 g/ha, 0 to 100 scale): 0 | Plant response rating (0 to 100), Soybean ([1]; PREEMERGENCE, Rate 2 g/ha): 0 | Plant response rating (0 to 100), Soybean ([1]; Rate 8 g/ha, POSTEMERGENCE): 50 | Plant response rating (0 to 100), Soybean ([1]; Rate 8 g/ha, PREEMERGENCE): 0 | Plant response rating (0 to 100), Soybean ([1]; Rate 31 g/ha, POSTEMERGENCE): 60 | Plant response rating (0 to 100), Soybean ([1]; Rate 31 g/ha, PREEMERGENCE): 0 | Plant response rating (0 to 100), Rice Japonica [2, 10]: 0 | Plant response rating (0 to 100), Rice Japonica [2, 11]: 0 | Plant response rating (0 to 100), Rice Japonica [2, 12]: 0 | Plant response rating Rice Japonica [2, 13]: 40 | Plant response rating, Crabgrass ([3]; POSTEMERGENCE, Rate 50 g/ha): 4 | Plant response rating, Crabgrass ([3]; PREEMERGENCE, Rate 50 g/ha): 5 | Plant response rating (0 to 10 scale), Crabgrass ([3]; PREEMERGENCE, Rate 200 g/ha): 10 | Plant response rating, Crabgrass ([3]; Rate 200 g/ha, POSTEMERGENCE): 5 | Plant response rating (0 to 100), Barnyardgrass 2 [4, 10]: 0 | Plant response rating (0 to 100), Barnyardgrass 2 [4, 11]: 90 | Plant response rating (0 to 100), Barnyardgrass 2 [4, 12]: 100 | Plant response rating Barnyardgrass 2 [4, 13]: 100 | Plant response rating, Nutsedge ([5]; POSTEMERGENCE, Rate 50 g/ha): 2 | Plant response rating, Nutsedge ([5]; PREEMERGENCE, Rate 50 g/ha): 0 | Plant response rating (0 to 10 scale), Nutsedge ([5]; PREEMERGENCE, Rate 200 g/ha): 0 | Plant response rating, Nutsedge ([5]; Rate 200 g/ha, POSTEMERGENCE): 5 | Plant response rating, Cocklebur ([6]; POSTEMERGENCE, Rate 50 g/ha): 7 | Plant response rating, Cocklebur ([6]; PREEMERGENCE, Rate 50 g/ha): 0 | Plant response rating (0 to 10 scale), Cocklebur ([6]; PREEMERGENCE, Rate 200 g/ha): 8 | Plant response rating, Cocklebur ([6]; Rate 200 g/ha, POSTEMERGENCE): 10 | Plant response rating, Wild oat ([7]; POSTEMERGENCE): 60 | Plant response rating (0 to 100), Wild oat ([7]; POSTEMERGENCE, Rate 2 g/ha): 10 | Plant response rating, Wild oat ([7]; PREEMERGENCE): 30 | Plant response rating (0 to 100), Wild oat ([7]; PREEMERGENCE, Rate 2 g/ha): 0 | Plant response rating (0 to 100), Wild oat ([7]; Rate 8 g/ha, POSTEMERGENCE): 30 | Plant response rating (0 to 100), Wild oat ([7]; Rate 8 g/ha, PREEMERGENCE): 0 | Plant response rating (0 to 100), Wild oat ([7]; Rate 31 g/ha, POSTEMERGENCE): 40 | Plant response rating (0 to 100), Wild oat ([7]; Rate 31 g/ha, PREEMERGENCE): 0 | Plant response rating Downy Brome ([8]; POSTEMERGENCE): 90 | Plant response rating (0 to 100), Downy Brome ([8]; POSTEMERGENCE, Rate 2 g/ha): 20 | Plant response rating Downy Brome ([8]; PREEMERGENCE): 60 | Plant response rating (0 to 100), Downy Brome ([8]; PREEMERGENCE, Rate 2 g/ha): 0 | Plant response rating (0 to 100), Downy Brome ([8]; Rate 8 g/ha, POSTEMERGENCE): 50 | Plant response rating (0 to 100), Downy Brome ([8]; Rate 8 g/ha, PREEMERGENCE): 0 | Plant response rating (0 to 100), Downy Brome ([8]; Rate 31 g/ha, POSTEMERGENCE): 70 | Plant response rating (0 to 100), Downy Brome ([8]; Rate 31 g/ha, PREEMERGENCE): 30 | Plant response rating, Rape ([9]; POSTEMERGENCE): 100 | Plant response rating (0 to 100), Rape ([9]; POSTEMERGENCE, Rate 2 g/ha): 20 | Plant response rating, Rape ([9]; PREEMERGENCE): 40 | Plant response rating (0 to 100), Rape ([9]; PREEMERGENCE, Rate 2 g/ha): 0 | Plant response rating (0 to 100), Rape ([9]; Rate 8 g/ha, POSTEMERGENCE): 40 | Plant response rating (0 to 100), Rape ([9]; Rate 8 g/ha, PREEMERGENCE): 0 | Plant response rating (0 to 100), Rape ([9]; Rate 31 g/ha, POSTEMERGENCE): 70 | Plant response rating (0 to 100), Rape ([9]; Rate 31 g/ha, PREEMERGENCE): 0
